Measurements reported in US4005100A, “Pyrazole-5-carboxamides” (Hoffmann-La Roche Inc., priority 1972, dated 1977).
“And” between values parts separate entries of the source, which are not always exact repeats. Identical values can stand only once.

Experiments:
[1] = test system: streptozotocin-diabetic rats; experiment: glucose level (in % of controls) upon oral administration to streptozotocin-diabetic rats; type: in vivo, rat (Female Albino-rats)
Protocol: (§1) A compound encompassed by the formula I, namely, 3-methyl-N-(5-methyl-3,3-diphenyl-pyrrolin-2-yl)pyrazole-5-carboxamide, upon oral administration to maximal streptozotocin-diabetic rats gave the following values for the glucose and fatty acid levels (in % of controls):
(§2) The test procedure was that described by E. LORCH in Diabetologia 7, 195-203 (1971).
(§3) Female (140-160 gr) Albino-rats were starved (24 hrs) and refed (16 hrs) one week after Streptozotocin administration (60 mg/kg s.c.). Mean plasma glucose values: 500-600 mg/100 ml plasma. Diabetic starved-refed control animals received the suspension vehicle alone.

[2] = test system: streptozotocin-diabetic rats; experiment: free fatty acid level (in % of controls) upon oral administration to streptozotocin-diabetic rats; type: in vivo, rat (Female Albino-rats)
Protocol: as §1, §2, §3

[3] = DL50 in the rat, single oral application; conditions: in vivo, observation period 10 days
Description: The DL50 in the rat amounts to 8 g/kg (single oral application: observation period 10 days).

[4] = 100 μmol/kg oral, 4 hours after application
[5] = 300 μmol/kg oral, 2 hours after application
[6] = 300 μmol/kg oral, 6 hours after application
[7] = 1000 μmol/kg oral, 4 hours after application

Cc1cc(C(=O)NC2=NC(C)CC2(c2ccccc2)c2ccccc2)[nH]n1 (stereo not drawn) [3-methyl-N-(5-methyl-3,3-diphenyl-1-pyrrolin-2-yl)-pyrazole-5-carboxamide]
Glucose ([1]; 100 μmol/kg oral, 2 hours after application): 70 % of controls | Glucose [1, 4]: 80 % of controls and 96 % of controls and 50 % of controls | Glucose ([1]; 100 μmol/kg oral, 6 hours after application): 60 % of controls | Glucose [1, 5]: 76 % of controls and 70 % of controls | Glucose [1, 6]: 71 % of controls and 59 % of controls | Glucose [1, 7]: 89 % of controls and 80 % of controls | Free fatty acids [2, 4]: 56 % of controls | Free fatty acids [2, 5]: 59 % of controls | Free fatty acids ([2]; 300 μmol/kg oral, 4 hours after application): 72 % of controls and 62 % of controls | Free fatty acids [2, 6]: 50 % of controls | Free fatty acids [2, 7]: 57 % of controls | LD50 at 240 h [3]: 8000 mg/kg
